Test results as given in patent US9527832B2, “Substituted condensed pyrimidine compounds” (GRÜNENTHAL GMBH, priority 2013, dated 2016).

Target: T1, human PDE4B1 (Homo sapiens, UniProt Q07343)
T1 construct: host or cells: Sf9 cells
Assay: cAMP HTRF assay to determine the activity of hPDE4B1
Format: biochemical
Settings: for inhibition at 1 µM: Percentage inhibition of PDE4B at 1 μM test concentration; for IC50: dose response measurements with eight concentrations, reported as ranges, read-out: IC50
How it was run: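 Sf9-expressed recombinant human PDE4B1 (4.8 U) in Tris-HCl/MgCl2/DTT/Tween 20 buffer pH 7.8, with cAMP at 40 nM final, 30 min at room temperature. Reaction stopped with IBMX 1 mM; remaining cAMP detected by HTRF (665/620 nm ratio). IC50 from eight-point dose-response, n=2.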

T1 sequence (Q07343 whole entry): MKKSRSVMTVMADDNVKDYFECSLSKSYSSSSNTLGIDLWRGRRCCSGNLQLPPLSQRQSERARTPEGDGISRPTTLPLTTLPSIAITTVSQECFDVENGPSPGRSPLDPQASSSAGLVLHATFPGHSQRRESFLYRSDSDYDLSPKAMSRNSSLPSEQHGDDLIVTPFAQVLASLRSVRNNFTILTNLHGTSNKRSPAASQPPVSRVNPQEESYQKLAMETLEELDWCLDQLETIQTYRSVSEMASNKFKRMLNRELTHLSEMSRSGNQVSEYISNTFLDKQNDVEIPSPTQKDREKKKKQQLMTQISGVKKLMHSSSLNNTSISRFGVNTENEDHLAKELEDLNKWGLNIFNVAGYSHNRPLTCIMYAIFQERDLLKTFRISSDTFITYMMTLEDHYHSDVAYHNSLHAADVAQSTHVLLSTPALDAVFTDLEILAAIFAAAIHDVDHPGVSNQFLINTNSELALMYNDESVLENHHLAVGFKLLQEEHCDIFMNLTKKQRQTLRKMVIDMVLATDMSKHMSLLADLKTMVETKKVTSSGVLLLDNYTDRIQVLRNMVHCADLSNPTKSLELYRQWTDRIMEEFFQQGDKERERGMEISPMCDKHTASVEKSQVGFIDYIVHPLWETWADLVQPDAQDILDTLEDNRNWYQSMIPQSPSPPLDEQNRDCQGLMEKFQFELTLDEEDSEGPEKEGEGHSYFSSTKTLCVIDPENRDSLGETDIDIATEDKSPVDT

Row | Compound | inhibition at 1 µM [%] | IC50 [nM]
1 | COc1ccc(-c2nc3c(c(N4CCc5ccc(OCC(=O)N(C)C)cc54)n2)CS(=O)(=O)C3)cc1 [Compound No. 2-21, 2-((1-(2-(4-Methoxyphenyl)-6,6-dioxido-5,7-dihydrothieno[3,4-d]pyrimidin-4-yl)indolin-6-yl)oxy)-N,N-dimethylacetamide] | 88 | < 100
2 | COc1ccc(-c2nc3c(c(N4CCc5ccc(OCC(=O)N(C)C)cc54)n2)CS(=O)(=O)C3)cc1Cl [Compound No. 2-33, 2-((1-(2-(3-Chloro-4-methoxyphenyl)-6,6-dioxido-5,7-dihydrothieno[3,4-d]pyrimidin-4-yl)indolin-6-yl)oxy)-N,N-dimethylacetamide] | 100 | < 100
3 | CN(C)C(=O)COc1ccc2c(c1)N(c1nc(-c3ccc(F)c(F)c3)nc3c1C[S+]([O-])C3)CC2 (stereo not shown) [Compound No. 2-40, 2-((1-(2-(3,4-Difluorophenyl)-6-oxido-5,7-dihydrothieno[3,4-d]pyrimidin-4-yl)indolin-6-yl)oxy)-N,N-dimethylacetamide] | 119 | < 100
4 | CN(C)C(=O)COc1ccc2c(c1)N(c1nc(-c3ccc(F)c(F)c3)nc3c1CS(=O)(=O)C3)CC2 [Compound No. 2-41, 2-((1-(2-(3,4-Difluorophenyl)-6,6-dioxido-5,7-dihydrothieno[3,4-d]pyrimidin-4-yl)indolin-6-yl)oxy)-N,N-dimethylacetamide] | 85 | < 100
5 | CN(C)C(=O)COc1ccc2c(c1)N(c1nc(-c3ccc(Cl)s3)nc3c1CCC3)CC2 [Compound No. 2-42, 2-((1-(2-(5-Chlorothiophen-2-yl)-6,7-dihydro-5H-cyclopenta[d]pyrimidin-4-yl)indolin-6-yl)oxy)-N,N-dimethylacetamide] | 79 | < 100
6 | CN(C)C(=O)COc1ccc2c(c1)N(c1nc(-c3ccc(F)s3)nc3c1CCC3)CC2 [Compound No. 2-46, 2-((1-(2-(5-Fluorothiophen-2-yl)-6,7-dihydro-5H-cyclopenta[d]pyrimidin-4-yl)indolin-6-yl)oxy)-N,N-dimethylacetamide] | 94 | < 100
7 | CN(C)C(=O)COc1ccc2c(c1)N(c1nc(-c3ccc(F)s3)nc3c1CS(=O)(=O)C3)CC2 [Compound No. 2-49, 2-((1-(2-(5-Fluorothiophen-2-yl)-6,6-dioxido-5,7-dihydrothieno[3,4-d]pyrimidin-4-yl)indolin-6-yl)oxy)-N,N-dimethylacetamide] | 127 | < 100

The remaining lines, values ahead:

Row | inhibition at 1 µM [%] | IC50 [nM] | Compound
8 | 106 | < 100 | O=C(O)Cc1ccc2c(c1)CCN2c1nc(-c2ccc3occc3c2)nc2c1C[S+]([O-])C2 (stereo not shown) [Compound No. 1-81, 2-(1-(2-(Benzofuran-5-yl)-6-oxido-5,7-dihydrothieno[3,4-d]pyrimidin-4-yl)indolin-5-yl)acetic acid]
9 | 98 | < 100 | COc1ccc(-c2nc3c(c(N4CCc5ccc(OCC(=O)N(C)C)cc54)n2)C[S+]([O-])C3)cc1F (stereo not shown) [Compound No. 2-36, 2-((1-(2-(3-Fluoro-4-methoxyphenyl)-6-oxido-5,7-dihydrothieno[3,4-d]pyrimidin-4-yl)indolin-6-yl)oxy)-N,N-dimethylacetamide]
10 | 96 | < 100 | COc1ccc(-c2nc3c(c(N4CCc5ccc(OCC(=O)N(C)C)cc54)n2)CS(=O)(=O)C3)cc1F [Compound No. 2-37, 2-((1-(2-(3-Fluoro-4-methoxyphenyl)-6,6-dioxido-5,7-dihydrothieno[3,4-d]pyrimidin-4-yl)indolin-6-yl)oxy)-N,N-dimethylacetamide]
11 | 105 | < 100 | CN(C)C(=O)COc1ccc2c(c1)N(c1nc(-c3ccc(Cl)s3)nc3c1CS(=O)(=O)C3)CC2 [Compound No. 2-45, 2-((1-(2-(5-Chlorothiophen-2-yl)-6,6-dioxido-5,7-dihydrothieno[3,4-d]pyrimidin-4-yl)indolin-6-yl)oxy)-N,N-dimethylacetamide]
